Data set [1] concerns isolated auricle of a rabbit. As to the kind of experiment: Peripheral vasomotoricity, isolated and perfused auricle of a rabbit. The settings on record: for activation at 0.0001 mg / activation at 0.001 mg / activation at 0.01 mg / activation at 0.1 mg: Oryctolagus cuniculus, read-out: Maximum variations in the flow rate; for activation at 0.0001 mg: dose 0.1 μg.; for activation at 0.001 mg: dose 1 μg.; for activation at 0.01 mg: dose 10 μg.; for activation at 0.1 mg: dose 100 μg.; for peripheral vasodilatory action: in words; for duration of the effects / of the action: at the highest doses. The method, then: The flow rate of the liquid issuing from the veins is recorded by electronic contact on a polygraph. The products to be studied are injected at increasing doses into the perfusion tube and their actions are compared to that of isoxsuprine used as the reference substance.
The results, collected in Table No. III, are expressed in the maximum percentage increase of the flow rate at the various doses used.

Data set [2] is described as follows: Cardiovascular action in dogs. The format is in vivo, male Beagle dogs. The method, then:
Male Beagle dogs weighing 9 to 12 kg. were anaesthetised by intrasaphenous injection of a 2% solution of chloralose in physiological solution, at a dose of 100 mg./kg.
The anaesthesia is maintained by slow perfusion of 5% pentobarbital (1.2 ml./hour).
The animals are tracheotomised and placed under assisted respiration by means of a Bird respirator. Their oxygenation and their acid-base equilibrium are controlled by determination of the pH, the pCO2 and the pO2 on blood samples taken from a collateral of the brachial artery (pH/gas analyser for blood, IL model 213/227).
The different parameters are recorded on a polygraph.

A short description of data set [3]: Acute toxicity in mice (LD 50). The format is in vivo. The note with it: mouse, in vivo, mice, 15 days observation. As for the experimental part: The study is carried out on batches of 5 Swiss female mice of the NMRI Han. strain. The products are administered either intravenously (into the caudal vein) in solution in a 9 g..permill. sodium chloride solution, or orally (probang) in suspension in a 10% solution of gum arabic.
The animals are observed for the 15 days following the administration of the products.
The LD 50 values are calculated by the method of Karber and Behrens (Arch. Exp. Pathol. Pharm. 177, 1935, page 379).

[4] abbreviates: 0.5 mg./kg. i.v. (1/50 LD 50), then.
Where [5] appears, read: 0.6 mg./kg. i.v. (1/50 LD 50), first phase.
[6] abbreviates: 0.6 mg./kg. i.v. (1/50 LD 50), then.

The text below walks through data of patent publication US4065575A, “3-Aminomethyl derivatives of 4-chromanone” (Joullie International, priority 1975, dated 1977).

Molecules are shown by their SMILES. Where a name gives a salt, the structure may show the parent alone. Some results are limits rather than exact numbers.

In general, LD50 refers to the dose at which mortality reaches 50%.

Take `CCCNCC1COc2ccccc2C1=O` (stereo not drawn) [LJ 1048, 3-(n-Propylaminomethyl)-4-chromanone hydrochloride]: in data set [1], the activation at 0.0001 mg came to 22%, the activation at 0.001 mg amounted to 33%, the activation at 0.01 mg turned out to be 33% and the activation at 0.1 mg turned out to be 29%. Further, the peripheral vasodilatory action result in data set [1] was “low activity”. In data set [2] (0.7 mg./kg. i.v. (1/50 LD 50)), the “Hb (heart beat), maximum per cent variation” value was “+33%”; the “Hb, duration of action” value was more than 60 min; the “LVP (left ventricular pressure), maximum per cent variation” value is -21%; the “LVP, duration of action” value turned out to be 30 min. In addition, in data set [2] (0.7 mg./kg. i.v. (1/50 LD 50)), the “Mean AP, duration of action” value was more than 60 min; the “Mean AP, maximum per cent variation” value is on record as -38%; the “dLVP/dt, duration of action” value was found to be 60 min; the “dLVP/dt, maximum per cent variation” value is reported as “+28%”. Further, the LD50 at 360 h in data set [3] (intravenous administration) came to 36 mg/kg. In data set [3] (oral administration), the LD50 at 360 h amounted to 362 mg/kg.
Take `CCCCNCC1COc2ccccc2C1=O` (stereo not drawn) [LJ 1049, 3-(n-Butylaminomethyl)-4-chromanone hydrochloride]: in data set [1], the activation at 0.0001 mg stood at 36%, the activation at 0.001 mg stood at 36%, the activation at 0.01 mg is 115% and the activation at 0.1 mg came to 138%. Also, in data set [1], the “duration of the effects / of the action” value is not below 30 min and the peripheral vasodilatory action entry is on record as “great”. In data set [2] (0.5 mg./kg. i.v. (1/50 LD 50)), the “FF (mean flow rate of the femoral artery), maximum per cent variation” value is on record as “+34%”; the “FF, duration of action” value was 2 min; the “Hb (heart beat), maximum per cent variation” value was “+21%”; the “Hb, duration of action” value was determined as 40 min. In data set [2] (0.5 mg./kg. i.v. (1/50 LD 50)), the “LVP (left ventricular pressure), maximum per cent variation” value is -19%; the “LVP, duration of action” value stood at 50 min; the “Mean AP, duration of action” value stood at 10 min; the “Mean AP, maximum per cent variation” value is on record as -15%. Also, the “dLVP/dt, maximum per cent variation” value in data set [2] (0.5 mg./kg. i.v. (1/50 LD 50), first phase) was -10%. For the same compound, in data set [2] (setting [4]), the “dLVP/dt, duration of action, second phase ("then")” value was found to be 10 min and the “dLVP/dt, maximum per cent variation, second phase ("then")” value is reported as “+20%”. The compound also returned an LD50 at 360 h in data set [3] (intravenous administration) of 24 mg/kg. The compound further gave an LD50 at 360 h in data set [3] (oral administration) of 262 mg/kg.
As for `COCCCNCC1COc2ccccc2C1=O` (stereo not drawn) [LJ 1051, 3-(3-Methoxy-n-propylaminomethyl)-4-chromanone hydrochloride], in data set [1], the activation at 0.0001 mg worked out at 0%, the activation at 0.001 mg worked out at 36%, the activation at 0.01 mg is 100% and the “duration of the effects / of the action” value is not below 30 min. The peripheral vasodilatory action result in data set [1] is listed as “great”. In data set [2] (0.6 mg./kg. i.v. (1/50 LD 50)), the “LVP (left ventricular pressure), maximum per cent variation” value is recorded as -30%; the “LVP, duration of action” value was more than 50 min; the “Mean AP, duration of action” value is more than 50 min; the “Mean AP, maximum per cent variation” value was -21%. Further, in data set [2] (0.6 mg./kg. i.v. (1/50 LD 50)), the “dLVP/dt, duration of action” value is more than 50 min and the “dLVP/dt, maximum per cent variation” value was -60%. Moreover, in data set [2] (setting [5]), the “Hb (heart beat), maximum per cent variation” value is on record as “+20%” and the “Hb, duration of action” value stood at 3 min. For the same compound, in data set [2] (setting [6]), the “Hb, duration of action, second phase ("then")” value stood at 40 min and the “Hb, maximum per cent variation, second phase ("then")” value is reported as -16%. Further, the LD50 at 360 h in data set [3] (intravenous administration) was 33 mg/kg. The compound further had an LD50 at 360 h in data set [3] (oral administration) of 475 mg/kg.
